According to patent US20030235646A1, “Method for improving quality of meat by supplementing pig diets and concentrates used therefor” (Lonza Inc., priority 2002, published 2003):

Experiments:
[1] = system: finishing pigs (longissimus muscle); test: Carcass quality measures of finishing pigs fed Carnitine and Paylean (Example 1); format: in vivo; parameters: key to L*: lightness: 100 = perfect white, 0 = absolute black; key to Firmness: score 1 = soft and watery, 5 = firm and dry; Hue angle / Drip loss: unit not given here; details: for Temperature: 45 minutes postmortem
Excerpt: Color is qualitatively measured using Minolta color-spectrometry, a process which evaluates the Hunter L* and a* values of the meat color, as well as by the saturation index and the Hue Angle value. Hunter L* value measures the lightness of the meat color and varies from 100 for perfect white to 0 for absolute black. Acceptable values for pork range from 35 to 55, with 40-45 values being most preferred by consumers.
The other Hunter value is related to the hue of the color of the meat, with increasing a* values indicating redness and decreasing a values indicating greenness. High quality pork has Hunter a* values which range from 7.5 to 12, and consumers prefer meat with 9-9.5 scores.
Hue Angle value measures the discoloration of meat. Increasing values indicate increasing discoloration of meat. Decreasing values indicate reduction of the discoloration. Acceptable pork Hue Angle values range from 48 to 54, and the preferred values range from 48-52.
The final spectrographic measurement is the saturation index, which is related to the strength of the color of the meat. Acceptable pork saturation index values range from 12 to 15.5, with values from 13-14.5 being preferred. The color of the meat is of particular importance in some export markets, such as Japan, Korea, Asia and South America. […] Acceptable marbling score ranges from 1 to 3, with 2.5 being preferred.
Drip loss is a measurement of the ability of the sample to retain water. In this procedure, a standardized amount of lean pork muscle, i.e., a cubic centimeter, is weighed, then suspended in an airtight container from a hook for 24 hours. The difference in weight from beginning to end of the 24 hour period represents the amount of water loss or purge. The greater the amount of purge loss, the poorer the pork quality. Changes in the pH of pork associated with postmortem metabolism affect the isoelectric point of the various amino acids in protein, and thus can affect the protein's ability to bind water. Pork with high drip loss is termed in the industry as “exudative” which is undesirable to both meat producers and consumers.
The firmness of the meat is measured visually on the score from 1 to 5, 1 being soft and watery, 5 being firm and dry. The acceptable score is 2-4, and the preferred score is 2.5-3.5. This characteristic of pork has become important due to recent attempts to genetically improve the leanness of the meat. The desired leanness has been accompanied by a negative impact on the meat firmness. As a result, approximately 30% of the meat now going through packing houses has been categorized as PSE (Pale Soft Exudative meat) and is unacceptable to the consumer, thus causing economic loss to the meat producer according to the National Meat Producers Council. Thus, there is an urgent need in the art for means of improving the quality (firmness, color, marbling) and carcass characteristics of the pork.
(§1) One hundred twenty-six gilts (initially 73.6 lb, PIC C22×L326) were allotted by weight and ancestry in a randomized complete block design to each of the nine experimental treatments arranged in a 3×3 factorial arrangement. There were two pigs/pen and seven replicates/treatment. Pigs were housed in an environmentally controlled building with 4-ft×4-ft slatted-floor pens.
Pigs were fed a corn-soybean meal diet composed of the following:
L-carnitine (0, 25, or 50 ppm) was added to the diet from 73.6 lb until slaughter (approximately 240 lb). Paylean (a registered trademark of Eli Lilly Company for ractopamine) treatments (0, 4.5, or 9 g/ton) were fed for the last four weeks of the experiment. The basal diet was formulated to contain 1.10% lysine from 73.6 to 164 lb, and 1.00% lysine from 164 lb until the end of the experiment. These quantities of Paylean are equivalent to 0, 5, and 10 ppm of ractopamine in the feed, respectively. […]

[2] = system: finishing pigs; test: Carcass characteristics of finishing pigs fed Carnitine and Paylean (Example 2); format: in vivo; details: for Firmness / Marbling / Visual cobra: score 1 to 5
Protocol: Because of the dramatic and potentially economically important changes in pork quality observed in the data of Example 1, a second trial was conducted to confirm these observations. This experiment was conducted in the same facility as Example 1 and used the same diet in Table 1. The primary difference was that the 4.5 g/ton ractopamine level was not included; i.e., only 0 or 9 grams/ton ractopamine was combined with either 0, 25, or 50 ppm of added L-camitine.

[3] = system: pigs; test: Growth performance of pigs (Example 1); format: in vivo; details: between 73.6 and 164 lb; P>0.64
Protocol: as §1
L-carnitine (0, 25, or 50 ppm) was added to the diet from 73.6 lb until slaughter (approximately 240 lb). Paylean (a registered trademark of Eli Lilly Company for ractopamine) treatments (0, 4.5, or 9 g/ton) were fed for the last four weeks of the experiment. The basal diet was formulated to contain 1.10% lysine from 73.6 to 164 lb, and 1.00% lysine from 164 lb until the end of the experiment. These quantities of Paylean are equivalent to 0, 5, and 10 ppm of ractopamine in the feed, respectively.
Weights were obtained on every pig and feed disappearance was recorded every fourteen days during the experiment until the last four weeks, at which time measurements were taken weekly to calculate ADG, ADFI, and feed efficiency (F/G). One pig (closest to 240 lb) per pen was selected and slaughtered at the Kansas State University Meat Laboratory. […]
Data were analyzed as a randomized complete block. […]

[4] = system: pork; test: Follow-up studies of pork drip loss (Example 3, FIGS. 1 and 2); format: in vivo, pigs
Protocol: Drip loss is a measurement of the ability of the sample to retain water. In this procedure, a standardized amount of lean pork muscle, i.e., a cubic centimeter, is weighed, then suspended in an airtight container from a hook for 24 hours. The difference in weight from beginning to end of the 24 hour period represents the amount of water loss or purge. […] Changes in the pH of pork associated with postmortem metabolism affect the isoelectric point of the various amino acids in protein, and thus can affect the protein's ability to bind water.

[5] = Paylean 0 g/ton, Carnitine 25 ppm
[6] = Paylean 0 g/ton, Carnitine 25 ppm, score 1 to 5
[7] = Paylean 0 g/ton, Carnitine 50 ppm
[8] = Paylean 0 g/ton, Carnitine 50 ppm, score 1 to 5
[9] = with 4.5 or 9 g/ton Paylean, but not control pigs
[10] = with increasing levels, linear, P<0.04
[11] = Paylean 4.5 g/ton, Carnitine 0 ppm
[12] = Paylean 4.5 g/ton, Carnitine 0 ppm, score 1 to 5
[13] = Paylean 9 g/ton, Carnitine 0 ppm
[14] = Paylean 9 g/ton, Carnitine 0 ppm, score 1 to 5

SMILES: C[N+](C)(C)C[C@H](O)CC(=O)[O-] [Carnitine, L-carnitine]
- Drip loss [1, 5]: 2.80
- Hue angle [1, 5]: 67.38
- L* [1, 5]: 58.01
- PH 45 m postmortem [1, 5]: 6.55
- PH 24 h postmortem [1, 5]: 5.79
- Saturation index [1, 5]: 15.89
- a* [1, 5]: 6.17
- a*/b* [1, 5]: 0.42
- b* [1, 5]: 14.61
- Temperature [1, 5]: 34.83 °C
- Firmness [1, 6]: 1.65
- Marbling [1, 6]: 1.71
- Visual color [1, 6]: 2.78
- Drip loss [1, 7]: 2.07
- Hue angle [1, 7]: 67.05
- L* [1, 7]: 56.80
- PH 45 m postmortem [1, 7]: 6.46
- PH 24 h postmortem [1, 7]: 5.76
- Saturation index [1, 7]: 16.44
- a* [1, 7]: 6.45
- a*/b* [1, 7]: 0.43
- b* [1, 7]: 15.10
- Temperature [1, 7]: 32.98 °C
- Firmness [1, 8]: 1.93
- Marbling [1, 8]: 1.85
- Visual color [1, 8]: 3.14
- visual color scores ([1]; in control pigs): did not improve
- L* values ([1]; increasing levels, fed with 4.5 or 9 g/ton of Paylean, longissimus muscle at 10th rib): lower L* values
- color, marbling, L*, a*/b* ratio and hue angle ([1]; supplementing finishing pig diets): positively improve
- Visual color ([1]; when 4.5 or 9 g/ton of Paylean was fed): did improve
- Hue angle values [1, 9]: lower
- a*/b* values [1, 9]: lower
- Drip loss measured 48 hours postmortem [1, 10]: decreased
- temperature at 45 minutes postmortem [1, 10]: decreased
- Ultimate (24-h) pH ([1]; with increasing levels, linear, P<0.07): increased
- Measurements of b* ([1]; with increasing levels, quadratic, P<0.05): decreased
- saturation index measured on the longissimus muscle ([1]; with increasing levels, quadratic, P<0.07): tended to decrease
- Drip loss [2, 5]: 3.07%
- Hue angle [2, 5]: 64.61
- L* [2, 5]: 57.23
- Saturation index [2, 5]: 17.59
- Temperature 5 min [2, 5]: 39.79 °C
- Temperature 15 min [2, 5]: 39.92 °C
- Temperature 45 min [2, 5]: 39.03 °C
- Temperature 1.5 h [2, 5]: 32.87 °C
- Temperature 3 h [2, 5]: 22.12 °C
- Temperature 6 h [2, 5]: 11.28 °C
- a* [2, 5]: 7.58
- a*/b* [2, 5]: 0.48
- b* [2, 5]: 15.86
- pH 0 min [2, 5]: 7.13
- pH 5 min [2, 5]: 6.84
- pH 15 min [2, 5]: 6.60
- pH 45 min [2, 5]: 6.16
- pH 1.5 h [2, 5]: 5.91
- pH 3 h [2, 5]: 5.76
- pH 6 h [2, 5]: 5.70
- pH 24 h [2, 5]: 5.61
- Firmness [2, 5]: 2.44
- Marbling [2, 5]: 1.75
- Visual cobra [2, 5]: 3.10
- Drip loss [2, 7]: 2.73%
- Hue angle [2, 7]: 64.07
- L* [2, 7]: 58.00
- Saturation index [2, 7]: 18.11
- Temperature 5 min [2, 7]: 39.17 °C
- Temperature 15 min [2, 7]: 39.56 °C
- Temperature 45 min [2, 7]: 38.73 °C
- Temperature 1.5 h [2, 7]: 33.17 °C
- Temperature 3 h [2, 7]: 20.89 °C
- Temperature 6 h [2, 7]: 11.22 °C
- a* [2, 7]: 7.93
- a*/b* [2, 7]: 0.49
- b* [2, 7]: 16.27
- pH 0 min [2, 7]: 7.21
- pH 5 min [2, 7]: 6.82
- pH 15 min [2, 7]: 6.58
- pH 45 min [2, 7]: 6.02
- pH 1.5 h [2, 7]: 5.97
- pH 3 h [2, 7]: 5.88
- pH 6 h [2, 7]: 5.70
- pH 24 h [2, 7]: 5.60
- Firmness [2, 7]: 2.34
- Marbling [2, 7]: 1.55
- Visual cobra [2, 7]: 2.90
- meat quality ([2]; in pigs fed Paylean): improves meat quality
- growth performance of pigs [3]: did not affect
- effect on drip loss ([4]; 50 ppm, without ractopamine, two of the three studies, FIG. 1): small positive effect
- effect on reducing (improving) pork drip loss ([4]; added to diet containing ractopamine, FIG. 2): greater net positive effect

SMILES: CC(CCc1ccc(O)cc1)NCC(O)c1ccc(O)cc1 (centres unmarked) [Paylean, ractopamine, reference compound]
- Drip loss [1, 11]: 3.13
- Hue angle [1, 11]: 69.95
- L* [1, 11]: 60.78
- PH 45 m postmortem [1, 11]: 6.41
- PH 24 h postmortem [1, 11]: 5.79
- Saturation index [1, 11]: 16.76
- a* [1, 11]: 5.78
- a*/b* [1, 11]: 0.37
- b* [1, 11]: 15.69
- Temperature [1, 11]: 34.39 °C
- Firmness [1, 12]: 1.79
- Marbling [1, 12]: 1.35
- Visual color [1, 12]: 2.57
- Drip loss [1, 13]: 3.68
- Hue angle [1, 13]: 68.65
- L* [1, 13]: 61.53
- PH 45 m postmortem [1, 13]: 6.33
- PH 24 h postmortem [1, 13]: 5.71
- Saturation index [1, 13]: 17.12
- a* [1, 13]: 6.30
- a*/b* [1, 13]: 0.39
- b* [1, 13]: 15.90
- Temperature [1, 13]: 35.72 °C
- Firmness [1, 14]: 1.79
- Marbling [1, 14]: 1.64
- Visual color [1, 14]: 2.57
- Twenty-four hour pH ([1]; with increasing levels of Paylean, quadratic, P<0.06, highest at 4.5 g/ton): increased and then decreased
- Drip loss [2, 13]: 4.85%
- Hue angle [2, 13]: 65.14
- L* [2, 13]: 59.72
- Saturation index [2, 13]: 18.74
- Temperature 5 min [2, 13]: 39.60 °C
- Temperature 15 min [2, 13]: 40.42 °C
- Temperature 45 min [2, 13]: 39.43 °C
- Temperature 1.5 h [2, 13]: 35.99 °C
- Temperature 3 h [2, 13]: 24.38 °C
- Temperature 6 h [2, 13]: 12.04 °C
- a* [2, 13]: 7.94
- a*/b* [2, 13]: 0.46
- b* [2, 13]: 16.97
- pH 0 min [2, 13]: 7.16
- pH 5 min [2, 13]: 6.79
- pH 15 min [2, 13]: 6.59
- pH 45 min [2, 13]: 6.14
- pH 1.5 h [2, 13]: 5.89
- pH 3 h [2, 13]: 5.59
- pH 6 h [2, 13]: 5.61
- pH 24 h [2, 13]: 5.58
- Firmness [2, 13]: 1.99
- Marbling [2, 13]: 1.85
- Visual cobra [2, 13]: 2.75
